Laboratory results from the supplement of paper PMC5908809.

What was measured:
[1] = test system: normal NK cells expanded with K562-aAPC; experiment: percent inhibition of viability; higher = more inhibition; conditions: 72 h, IL-2 2.5 ng/mL
Description: (§1)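 Drug sensitivity and resistance testing on K562-aAPC-expanded normal NK cells: 5 concentrations (10-fold steps over a 10,000-fold range), 72 h at 37 °C, viability by CellTiter-Glo normalised to DMSO and benzethonium chloride controls; DSS from the fitted curve.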

DERL-7 (IL-2 2.5 ng/mL) [2] = experiment: as above; conditions: 72 h
IMC-1 (IL-2 20 ng/mL) [3] = experiment: as above; conditions: 72 h
KAI3 (IL-2 2.5 ng/mL) [4] = experiment: as above; conditions: 72 h
KHYG-1 (IL-2 2.5 ng/mL) [5] = experiment: as above; conditions: 72 h
NK-92 (IL-2 2.5 ng/mL) [6] = experiment: as above; conditions: 72 h
NK-YS (IL-2 2.5 ng/mL) [7] = experiment: as above; conditions: 72 h
NKL (IL-2 2.5 ng/mL) [8] = experiment: as above; conditions: 72 h
SNK-6 (IL-2 2.5 ng/mL) [9] = experiment: as above; conditions: 72 h
YT (IL-2 2.5 ng/mL) [10] = experiment: as above; conditions: 72 h
[11] = test system: normal primary NK cells, pool 1 (3 donors) (IL-2 2.5 ng/mL); experiment: as above; conditions: 72 h
[12] = test system: normal primary NK cells, pool 1 (3 donors), resting (IL-2 0 ng/mL); experiment: as above; conditions: 72 h
[13] = test system: normal primary NK cells, pool 2 (3 donors) (IL-2 2.5 ng/mL); experiment: as above; conditions: 72 h
[14] = test system: normal primary NK cells, pool 3 (3 donors) (IL-2 2.5 ng/mL); experiment: as above; conditions: 72 h
[15] = test system: normal NK cells expanded with K562-aAPC; experiment: drug sensitivity score (DSS) (DSS units); higher = more sensitive; extreme values may be limits of the assay; conditions: 72 h; IL-2 2.5 ng/mL
Description: as §1

DERL-7 (IL-2 2.5 ng/mL) [16] = experiment: as above; conditions: 72 h
IMC-1 (IL-2 20 ng/mL) [17] = experiment: as above; conditions: 72 h
KAI3 (IL-2 2.5 ng/mL) [18] = experiment: as above; conditions: 72 h
KHYG-1 (IL-2 2.5 ng/mL) [19] = experiment: as above; conditions: 72 h
NK-92 (IL-2 2.5 ng/mL) [20] = experiment: as above; conditions: 72 h
NK-YS (IL-2 2.5 ng/mL) [21] = experiment: as above; conditions: 72 h
NKL (IL-2 2.5 ng/mL) [22] = experiment: as above; conditions: 72 h
SNK-6 (IL-2 2.5 ng/mL) [23] = experiment: as above; conditions: 72 h
YT (IL-2 2.5 ng/mL) [24] = experiment: as above; conditions: 72 h
[25] = test system: normal primary NK cells, pool 1 (3 donors) (IL-2 2.5 ng/mL); experiment: as above; conditions: 72 h
[26] = test system: normal primary NK cells, pool 1 (3 donors), resting (IL-2 0 ng/mL); experiment: as above; conditions: 72 h
[27] = test system: normal primary NK cells, pool 2 (3 donors) (IL-2 2.5 ng/mL); experiment: as above; conditions: 72 h
[28] = test system: normal primary NK cells, pool 3 (3 donors) (IL-2 2.5 ng/mL); experiment: as above; conditions: 72 h

COc1cccc2c1C(=O)c1c(O)c3c(c(O)c1C2=O)C[C@@](O)(C(C)=O)C[C@@H]3O[C@H]1C[C@H](N)[C@H](O)[C@H](C)O1 [Daunorubicin] (max concentration tested 1000 nM)
percent inhibition of viability [%]
Conditions | 0.1 nM | 1 nM | 10 nM | 100 nM | 1000 nM
DERL-7 (IL-2 2.5 ng/mL) [2] | -3.3 | -4.68 | 21.2 | 92.8 | 101
IMC-1 (IL-2 20 ng/mL) [3] | -9.54 | -10.2 | 16.5 | 98.7 | 101
KAI3 (IL-2 2.5 ng/mL) [4] | -5.78 | -13.2 | 19.7 | 61.9 | 106
KHYG-1 (IL-2 2.5 ng/mL) [5] | 1.81 | -4.06 | -1.19 | 93.7 | 109
NK-92 (IL-2 2.5 ng/mL) [6] | -16.2 | -14.1 | -9.07 | 89.9 | 109
NK-YS (IL-2 2.5 ng/mL) [7] | -2.31 | -8.67 | 23.9 | 77.1 | 106
NKL (IL-2 2.5 ng/mL) [8] | -2.22 | 6.13 | 88.5 | 104 | 109
SNK-6 (IL-2 2.5 ng/mL) [9] | -12.6 | -10.6 | -5.61 | 97.8 | 94.5
YT (IL-2 2.5 ng/mL) [10] | -3.13 | -9.89 | -7.78 | 93.8 | 110
[1] | -6.49 | -5.27 | 0.18 | 77.3 | 101
[11] | -16.8 | -3.87 | 17.1 | 94.1 | 98.6
[12] | -16.4 | -27.6 | 23.2 | 91.1 | 94
[13] | -11.1 | -1.9 | 13 | 92.7 | 94.4
[14] | -11.8 | -3.78 | 7.93 | 81.6 | 99.9

Conditions | drug sensitivity score
DERL-7 (IL-2 2.5 ng/mL) [16] | 19.7
IMC-1 (IL-2 20 ng/mL) [17] | 20.7
KAI3 (IL-2 2.5 ng/mL) [18] | 14.2
KHYG-1 (IL-2 2.5 ng/mL) [19] | 16.9
NK-92 (IL-2 2.5 ng/mL) [20] | 16
NK-YS (IL-2 2.5 ng/mL) [21] | 17.3
NKL (IL-2 2.5 ng/mL) [22] | 29.4
SNK-6 (IL-2 2.5 ng/mL) [23] | 17.1
YT (IL-2 2.5 ng/mL) [24] | 16.6
[15] | 14.4
[25] | 19.6
[26] | 20.5
[27] | 19.2
[28] | 16.1

CN(C)c1cc2c(cc1Sc1nc3c(N)nccc3n1CCNCC(C)(C)C)OCO2 [CUDC-305] (max concentration tested 10000 nM)
percent inhibition of viability [%]
Conditions | 1 nM | 10 nM | 100 nM | 1000 nM | 10000 nM
DERL-7 (IL-2 2.5 ng/mL) [2] | -1.72 | -0.9 | 22.4 | 101 | 101
IMC-1 (IL-2 20 ng/mL) [3] | -5.61 | -0.06 | 1.88 | 100 | 101
KAI3 (IL-2 2.5 ng/mL) [4] | -0.9 | -0.19 | 41.5 | 108 | 108
KHYG-1 (IL-2 2.5 ng/mL) [5] | -1.89 | -3.69 | 6.61 | 107 | 111
NK-92 (IL-2 2.5 ng/mL) [6] | -12 | -2.97 | 13.8 | 103 | 107
NK-YS (IL-2 2.5 ng/mL) [7] | -4.26 | -6.26 | 23.7 | 108 | 109
NKL (IL-2 2.5 ng/mL) [8] | -12.3 | -13.6 | 3.23 | 97.1 | 95.2
SNK-6 (IL-2 2.5 ng/mL) [9] | -24.7 | -25.3 | -1.59 | 89.5 | 89.3
YT (IL-2 2.5 ng/mL) [10] | -8.17 | -8.94 | 5.06 | 96.3 | 102
[1] | -9.36 | -5.57 | 18.3 | 98.9 | 99.5
[11] | 3.05 | 11.3 | 19.7 | 84.3 | 92.8
[12] | -0.67 | 17.6 | 27.6 | 43.1 | 69.2
[13] | -9.1 | 7.74 | 23 | 77.7 | 86.7
[14] | -11.7 | 2.98 | 12 | 77.3 | 88.5

Conditions | drug sensitivity score
DERL-7 (IL-2 2.5 ng/mL) [16] | 21.5
IMC-1 (IL-2 20 ng/mL) [17] | 18.2
KAI3 (IL-2 2.5 ng/mL) [18] | 23.5
KHYG-1 (IL-2 2.5 ng/mL) [19] | 19.4
NK-92 (IL-2 2.5 ng/mL) [20] | 20.4
NK-YS (IL-2 2.5 ng/mL) [21] | 21.7
NKL (IL-2 2.5 ng/mL) [22] | 17.9
SNK-6 (IL-2 2.5 ng/mL) [23] | 16
YT (IL-2 2.5 ng/mL) [24] | 18.2
[15] | 20.9
[25] | 17.8
[26] | 12.7
[27] | 17
[28] | 15.8
